Source: patent US9227971B2, “Pyrazolo[1,5-a]pyrimidine compounds as mTOR inhibitors” (Merck Sharp & Dohme Corp., priority 2010, dated 2016)

Experiments:
[1] = system: phosphorylated AKT Ser473 (pAKT S473), mTORC2 activity, PC3 cells; experiment: mTOR target engagement assay, immunofluorescent cell-based, pAKT S473 readout (mTORC2 activity); details: Homo sapiens, PC-3, PC3 cells, compound treatment ninety minutes at 37° C.
Summary of the method: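 After blocking, cells were stained overnight at 4 °C with anti-pAKT S473 antibody, then a fluorescent secondary; inhibition was read as reduced fluorescence intensity.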

[2] = system: phosphorylated 4E-BP1 Thr37/46 (p4E-BP1 Thr37/46), mTORC1 activity, PC3 cells; experiment: mTOR target engagement assay, immunofluorescent cell-based, p4E-BP1 Thr37/46 readout (mTORC1 activity); details: Homo sapiens, PC-3, PC3 cells, compound treatment ninety minutes at 37° C.; read-out: p4E-BP1 Thr37/46 IC50
Summary of the method: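 Seed PC3 cells overnight; treat with compound dilutions for ninety minutes at 37° C; fix with glyoxal and block; stain with anti-p4E-BP1 Thr37/46 overnight at 4° C, then fluorescent secondary; read fluorescence and fit IC50 against DMSO-only controls.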

| Structure (SMILES) | IC50 [1] [nM] | IC50 [2] [nM] |
| --- | --- | --- |
| CC(=O)c1c([C@@H]2C[C@H]3CC[C@@H](C2)N3C(=O)CO)nc2c(-c3ccc(C)nc3)cnn2c1N [Compound 1.1.90, 1-((1R,3s,5S)-3-(6-acetyl-7-amino-3-(6-methylpyridin-3-yl)pyrazolo[1,5-a]pyrimidin-5-yl)-8-azabicyclo[3.2.1]octan-8-yl)-2-hydroxyethanone] | 1000 to 10000 | 1000 to 10000 |
| CC(=O)c1c([C@@H]2C[C@H]3CC[C@@H](C2)N3C(=O)c2nnc[nH]2)nc2c(-c3ccc(-c4nc[nH]n4)nc3)cnn2c1N [Compound 1.1.91, 1-(3-(6-(1H-1,2,4-triazol-3-yl)pyridin-3-yl)-5-((1R,3s,5S)-8-(4H-1,2,4-triazole-3-carbonyl)-8-azabicyclo[3.2.1]octan-3-yl)-7-aminopyrazolo[1,5-a]pyrimidin-6-yl)ethanone] | 1 to 100 | 1 to 100 |
| CC(=O)c1c([C@@H]2C[C@H]3CC[C@@H](C2)N3C(=O)CO)nc2c(-c3ccc(-c4nn(C)cc4F)nc3)cnn2c1N [Compound 1.1.94, 1-((1R,3s,5S)-3-(6-acetyl-7-amino-3-(6-(4-fluoro-1-methyl-1H-pyrazol-3-yl)pyridin-3-yl)pyrazolo[1,5-a]pyrimidin-5-yl)-8-azabicyclo[3.2.1]octan-8-yl)-2-hydroxyethanone] | 100 to 1000 | 100 to 1000 |
| CC(=O)c1c([C@@H]2C[C@H]3CC[C@@H](C2)N3C(=O)c2nnc[nH]2)nc2c(-c3ccc(-c4cc(C)[nH]n4)nc3)cnn2c1N [Compound 1.1.95, 1-(5-((1R,3s,5S)-8-(4H-1,2,4-triazole-3-carbonyl)-8-azabicyclo[3.2.1]octan-3-yl)-7-amino-3-(6-(5-methyl-1H-pyrazol-3-yl)pyridin-3-yl)pyrazolo[1,5-a]pyrimidin-6-yl)ethanone] | 1000 to 10000 | 1000 to 10000 |
| CC(=O)c1c([C@@H]2C[C@H]3CC[C@@H](C2)N3C(=O)CO)nc2c(-c3ccc(-c4cc(C)[nH]n4)nc3)cnn2c1N [Compound 1.1.96, 1-((1R,3s,5S)-3-(6-acetyl-7-amino-3-(6-(5-methyl-1H-pyrazol-3-yl)pyridin-3-yl)pyrazolo[1,5-a]pyrimidin-5-yl)-8-azabicyclo[3.2.1]octan-8-yl)-2-hydroxyethanone] | > 10000 | > 10000 |
| CCc1ccc(-c2cnn3c(N)c(C(C)=O)c([C@@H]4C[C@H]5CC[C@@H](C4)N5C(=O)c4nnc[nH]4)nc23)cn1 [Compound 1.1.99, 1-(5-((1R,3s,5S)-8-(4H-1,2,4-triazole-3-carbonyl)-8-azabicyclo[3.2.1]octan-3-yl)-7-amino-3-(6-ethylpyridin-3-yl)pyrazolo[1,5-a]pyrimidin-6-yl)ethanone] | 1 to 100 | 1 to 100 |
| CC(=O)c1c([C@@H]2C[C@H]3CC[C@@H](C2)N3C(=O)c2nnc[nH]2)nc2c(-c3ccc(-c4cc(F)cc(F)c4)nc3)cnn2c1N [Compound 1.1.100, 1-(5-((1R,3r,5S)-8-(4H-1,2,4-triazole-3-carbonyl)-8-azabicyclo[3.2.1]octan-3-yl)-7-amino-3-(6-(3,5-difluorophenyl)pyridin-3-yl)pyrazolo[1,5-a]pyrimidin-6-yl)ethanone] | 100 to 1000 | 100 to 1000 |
| CC(=O)c1c([C@@H]2C[C@H]3CC[C@@H](C2)N3C(=O)CO)nc2c(-c3ccc(-c4cc(F)cc(F)c4)nc3)cnn2c1N [Compound 1.1.101, 1-((1R,3r,5S)-3-(6-acetyl-7-amino-3-(6-(3,5-difluorophenyl)pyridin-3-yl)pyrazolo[1,5-a]pyrimidin-5-yl)-8-azabicyclo[3.2.1]octan-8-yl)-2-hydroxyethanone] | 100 to 1000 | 100 to 1000 |
| CC(=O)c1c([C@@H]2C[C@H]3CC[C@@H](C2)N3C(=O)CO)nc2c(-c3ccc(-c4nc[nH]n4)nc3)cnn2c1N [Compound 1.1.102, 1-((1R,3s,5S)-3-(3-(6-(1H-1,2,4-triazol-3-yl)pyridin-3-yl)-6-acetyl-7-aminopyrazolo[1,5-a]pyrimidin-5-yl)-8-azabicyclo[3.2.1]octan-8-yl)-2-hydroxyethanone] | 1 to 100 | 1 to 100 |
| CC(=O)c1c([C@@H]2C[C@H]3CC[C@@H](C2)N3C(=O)c2nnc[nH]2)nc2c(-c3ccc(-c4cccc(F)c4)nc3)cnn2c1N [Compound 1.1.103, 1-(5-((1R,3r,5S)-8-(4H-1,2,4-triazole-3-carbonyl)-8-azabicyclo[3.2.1]octan-3-yl)-7-amino-3-(6-(3-fluorophenyl)pyridin-3-yl)pyrazolo[1,5-a]pyrimidin-6-yl)ethanone] | 1 to 100 | 1 to 100 |
| CC(=O)c1c([C@@H]2C[C@H]3CC[C@@H](C2)N3C(=O)c2nnc[nH]2)nc2c(-c3ccc(C(F)(F)F)nc3)cnn2c1N [Compound 1.1.104, 1-(5-((1R,3s,5S)-8-(4H-1,2,4-triazole-3-carbonyl)-8-azabicyclo[3.2.1]octan-3-yl)-7-amino-3-(6-(trifluoromethyl)pyridin-3-yl)pyrazolo[1,5-a]pyrimidin-6-yl)ethanone] | 100 to 1000 | 100 to 1000 |
| CC(=O)c1c([C@@H]2C[C@H]3CC[C@@H](C2)N3C(=O)CO)nc2c(-c3ccc(-c4cccc(F)c4)nc3)cnn2c1N [Compound 1.1.105, 1-((1R,3r,5S)-3-(6-acetyl-7-amino-3-(6-(3-fluorophenyl)pyridin-3-yl)pyrazolo[1,5-a]pyrimidin-5-yl)-8-azabicyclo[3.2.1]octan-8-yl)-2-hydroxyethanone] | 100 to 1000 | 100 to 1000 |
| CC(=O)c1c([C@@H]2C[C@H]3CC[C@@H](C2)N3C(=O)c2nnc[nH]2)nc2c(-c3ccc(-c4nn(C)cc4F)nc3)cnn2c1N [Compound 1.1.106, 1-(5-((1R,3s,5S)-8-(4H-1,2,4-triazole-3-carbonyl)-8-azabicyclo[3.2.1]octan-3-yl)-7-amino-3-(6-(4-fluoro-1-methyl-1H-pyrazol-3-yl)pyridin-3-yl)pyrazolo[1,5-a]pyrimidin-6-yl)ethanone] | 1 to 100 | 1 to 100 |
| CC(=O)c1c([C@@H]2C[C@H]3CC[C@@H](C2)N3C(=O)c2nnc[nH]2)nc2c(-c3ccc(-c4cn(C)cn4)nc3)cnn2c1N [Compound 1.1.108, 1-(5-((1R,3s,5S)-8-(4H-1,2,4-triazole-3-carbonyl)-8-azabicyclo[3.2.1]octan-3-yl)-7-amino-3-(6-(1-methyl-1H-imidazol-4-yl)pyridin-3-yl)pyrazolo[1,5-a]pyrimidin-6-yl)ethanone] | 1000 to 10000 | 1000 to 10000 |
| CC(=O)c1c([C@@H]2C[C@H]3CC[C@@H](C2)N3C(=O)c2nnc[nH]2)nc2c(-c3cnc(-c4cc[nH]n4)c(F)c3)cnn2c1N [Compound 1.1.110, 1-(5-((1R,3s,5S)-8-(4H-1,2,4-triazole-3-carbonyl)-8-azabicyclo[3.2.1]octan-3-yl)-7-amino-3-(5-fluoro-6-(1H-pyrazol-3-yl)pyridin-3-yl)pyrazolo[1,5-a]pyrimidin-6-yl)ethanone] | 100 to 1000 | 100 to 1000 |
| CC(=O)c1c([C@@H]2C[C@H]3CC[C@@H](C2)N3C(=O)CO)nc2c(-c3cnc(-c4cc[nH]n4)c(F)c3)cnn2c1N [Compound 1.1.111, 1-((1R,3s,5S)-3-(6-acetyl-7-amino-3-(5-fluoro-6-(1H-pyrazol-3-yl)pyridin-3-yl)pyrazolo[1,5-a]pyrimidin-5-yl)-8-azabicyclo[3.2.1]octan-8-yl)-2-hydroxyethanone] | 1000 to 10000 | 1000 to 10000 |
